{
  "source": "patent US8987294B2",
  "about": "“Small molecule inhibitors of the α4-paxillin interaction” (The Regents of the University of California, priority 2009, dated 2015)",
  "key": {"[1]": {"system": "Jurkat T cells", "assay": "Modified Boyden chamber migration, Jurkat T cells on CS-1", "assay_type": "cell-based", "settings": "Homo sapiens, 5 hours towards SDF-1α, read-out: inhibition of T-cell migration", "experimental": "(§1) Cell migration was assayed in a modified Boyden chamber assay system as described previously (8). For Jurkat T cell migration, transwell (Costar) polycarbonate membranes containing 3-μm pores were coated with 10 μg/ml CS-1, an α4 integrin binding fragment of fibronectin or 20 μg/ml ICAM in 0.1M NaHCO3, pH 8.0 overnight at 4° C. Membranes were blocked with 2% BSA in PBS for 30 minutes at room temperature. 2.0×10^5 Jurkat T cells in RPMI 1640 with 10% fetal bovine serum were added to the top chamber. Stromal-derived factor-1α (SDF-1α, R&D Systems, Minneapolis, Minn.) at a final concentration of 15 ng/ml in RPMI 1640 with 10% fetal bovine serum was added to the bottom chamber. Cells were allowed to migrate for 5 hours at 37° C. Cells in the bottom chamber were enumerated with a hemacytometer. Small molecule inhibitors were added to the top and bottom chamber in the indicated concentrations."}, "[2]": {"system": "THP-1 cells", "assay": "Modified Boyden chamber migration, THP-1 cells on CS-1", "assay_type": "cell-based", "settings": "Homo sapiens, 3 hours, read-out: inhibition of monocyte migration", "experimental": "as §1\nTHP-1 cells were cultured in RPMI1640 containing 0.1% fetal bovine serum for 16 hours before 1×10^6 cells were added to the top chamber of transwells with CS1-coated membranes that contained 5-μm pores and allowed to migrate for 3 hours towards RPMI containing 0.1% fetal bovine serum."}, "[3]": {"molecular_target": "T1, interaction of GIT-1 with leupaxin (Homo sapiens, UniProt O60711)", "T1 sequence (O60711 1-386)": "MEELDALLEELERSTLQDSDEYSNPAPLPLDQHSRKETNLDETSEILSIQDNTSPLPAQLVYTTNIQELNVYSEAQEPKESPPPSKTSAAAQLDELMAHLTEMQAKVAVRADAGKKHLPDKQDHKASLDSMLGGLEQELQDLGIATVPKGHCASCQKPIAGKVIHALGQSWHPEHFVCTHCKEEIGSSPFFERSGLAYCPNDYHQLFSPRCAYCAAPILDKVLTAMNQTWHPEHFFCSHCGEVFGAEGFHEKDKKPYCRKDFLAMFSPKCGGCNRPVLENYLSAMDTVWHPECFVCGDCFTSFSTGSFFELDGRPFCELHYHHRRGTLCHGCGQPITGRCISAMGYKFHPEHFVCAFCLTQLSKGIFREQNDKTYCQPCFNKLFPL", "assay": "ELISA, leupaxin binding to immobilized Git-1", "settings": "read-out: IC50, inhibition of interaction of GIT-1 with leupaxin", "experimental": "(§2) Thermo Electron High Binding 96 or 384 well plates were coated with 1 μg/ml neutravidin (Pierce) in 0.05M NaHCO3 pH 9.5 over night at 4° C. After blocking with 1% heat inactivated BSA in PBS for 1 hour at room temperature, plates were incubated with 1 μg/ml of recombinant αIIb-tail or α4-tail FAT or Git-1 in 1% BSA in PBS for one hour at room temperature. Plates were washed twice with 0.2% Tween in PBS to remove unbound protein and incubated with 10 μg/ml HA-tagged leupaxin or paxillin in 0.2% Tween/1% BSA in PBS in the presence or absence of small molecule compounds (5 mM DMSO stock solutions). […] Plates were washed twice and bound leupaxin or paxillin was detected by incubating with the first antibody (12CA5 ascites, 1:10,000 in 0.2% Tween/1% BSA in PBS) for 1 hour at room temperature and then with the secondary antibody (HPR-conjugated anti mouse, Biosource, 1:1,000 in 0.2% Tween, 1% BSA, PBS for 1 hour at room temperature. Binding was quantified after addition of ECL solution on a Victor luminescence plate reader. 0% inhibition control was measured with leupaxin and no compound and 100% inhibition control (background) was measured with no leupaxin and no compound. Each well was duplicated and percent inhibition was averaged. (FIG. 1A)"}, "[4]": {"molecular_target": "interaction of GIT-1 with paxillin (Homo sapiens, UniProt P49023)", "sequence (P49023 whole entry)": "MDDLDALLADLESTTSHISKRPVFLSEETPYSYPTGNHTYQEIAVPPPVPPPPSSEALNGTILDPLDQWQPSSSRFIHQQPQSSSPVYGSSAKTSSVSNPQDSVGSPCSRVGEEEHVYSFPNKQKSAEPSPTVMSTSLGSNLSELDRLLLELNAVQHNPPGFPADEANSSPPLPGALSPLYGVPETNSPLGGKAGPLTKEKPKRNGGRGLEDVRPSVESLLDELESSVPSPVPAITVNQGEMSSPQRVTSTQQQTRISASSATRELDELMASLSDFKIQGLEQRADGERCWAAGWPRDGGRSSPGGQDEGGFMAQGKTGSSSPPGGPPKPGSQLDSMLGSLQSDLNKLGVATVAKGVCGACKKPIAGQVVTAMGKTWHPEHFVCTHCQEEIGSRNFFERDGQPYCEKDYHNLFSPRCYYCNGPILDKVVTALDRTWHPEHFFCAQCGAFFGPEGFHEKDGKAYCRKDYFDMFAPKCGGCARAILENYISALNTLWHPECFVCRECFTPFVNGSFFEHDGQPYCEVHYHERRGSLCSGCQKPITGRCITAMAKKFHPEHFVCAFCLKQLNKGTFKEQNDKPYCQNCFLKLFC", "assay": "ELISA, paxillin binding to immobilized Git-1", "settings": "read-out: IC50, inhibition of interaction of GIT-1 with paxillin", "experimental": "as §2"}, "[5]": {"system": "Jurkat T cells", "assay": "Cytotoxicity assay (CellTiter 96 Aqueous One Solution)", "assay_type": "cell-based", "settings": "concentrations up to 100 μM for 24 h", "experimental": "The cytotoxicity effect of compounds on cultivated cells was determined using the CellTiter 96® Aqueous One Solution Cell Proliferation Assay (Promega, Madison, Wis.) according to the manufacturer's guidelines."}, "[6]": {"system": "CHO-S998A cells", "assay": "Spreading assay, CHO-S998A cells on CS-1", "assay_type": "cell-based, Chinese Hamster", "settings": "CS-1 coated cover slips, 45 minutes", "experimental": "(§3) Cell spreading was performed as described (11, 34). Briefly, CHO cells or Jurkat cells resuspended in Dulbecco's modified Eagle's medium or RPMI 1640, respectively, containing 0.5% fetal bovine serum and 0.2% BSA were plated on coverslips coated with 3 μg/ml GST-CS-1 in 12 well plates in the presence or absence of the small molecule inhibitor. […] The cell area was measured and analyzed using the ImageJ software. At least three independent experiments were performed and in each experiment at least 30 cells were analyzed."}, "[7]": {"system": "Jurkat T cells", "assay": "Modified Boyden chamber migration, Jurkat T cells on ICAM-1 (αLβ2-mediated)", "assay_type": "cell-based", "experimental": "as §1"}, "[8]": {"molecular_target": "T2, interaction of paxillin with α4-integrin (Homo sapiens, UniProt P49023)", "T2 construct": "6xHis (N); biotin acceptor peptide […]; made in house; host or cells: Escherichia coli", "assay": "ELISA, paxillin binding to immobilized α4 tail", "settings": "10 μg/ml paxillin; read-out: IC50, inhibition of paxillin binding to α4-integrin", "experimental": "as §2"}, "[9]": {"molecular_target": "T3, interaction of leupaxin with α4-integrin (Homo sapiens, UniProt O60711)", "T3 construct": "Biotinylated α4-integrin cytoplasmic tail was coated to the plates; 6xHis (N); biotin acceptor peptide […]; made in house; host or cells: Escherichia coli", "T3 sequence (O60711 1-386)": "T1 sequence (O60711 1-386)", "assay": "ELISA, leupaxin binding to immobilized α4 tail", "experimental": "as §2\nInhibition of the α4 leupaxin interaction was measured using the above described ELISA assay. Biotinylated α4-integrin cytoplasmic tail was coated to the plates and incubated with increasing concentrations of leupaxin in the presence of different concentrations of inhibitor or no inhibitor. The data were fitted to equations for models of competitive, non-competitive, uncompetitive of mixed inhibition using Graph Pad Prism 5.0 to test which model fits the best."}, "[10]": {"molecular_target": "T4, native paxillin and α4-integrin (Homo sapiens, UniProt P49023)", "T4 construct": "endogenous in cells; host or cells: Jurkat T cells", "assay": "Coimmunoprecipitation of α4 with paxillin from Jurkat T cells", "assay_type": "binding", "settings": "anti-biotin blot", "experimental": "For endogenous Coimmunoprecipitation experiments, Jurkat T-cells were washed in ice-cold PBS and incubated in 1.6 mM Sulfo-NHS-Biotin (Pierce, Chemical Co.) for 30 minutes at room temperature. Excess biotin was quenched and washed from the cells with PBS/Glycine. Cell lysates were then prepared with lysis buffer containing 20 mM Tris, pH 7.4, 150 mM NaCl, 10 mM EDTA, 1% Triton X-100, 0.05% Tween 20 and a protease inhibitor cocktail (Roche Diagnostics Corp.). Lysate containing 200 μg total cell protein was immunoprecipitated using 2 μg rabbit anti paxillin (RB-4358). Immunoprecipitated proteins were separated by SDS-PAGE (8% Bis-Tris, denaturating and reducing) and transferred to nitrocellulose membranes. Precipitated, biotinylated proteins were detected using HRP-Streptavidin (1:10,000)."}, "[11]": {"system": "Jurkat T cells expressing a mutated α4-integrin (α4(Y991A))", "assay": "Modified Boyden chamber migration, JB4-Y991A cells", "assay_type": "cell-based", "experimental": "as §1"}, "[12]": {"system": "C57B1/6 mice", "assay": "Thioglycollate-induced peritonitis", "assay_type": "in vivo", "experimental": "Male C57B1/6 mice 5-6 weeks old were injected intraperitoneally with 1 ml sterile 4% (wt/vol) thioglycollate (Sigma-Aldrich). Mice were injected with 16.5 mg/kg 6-B345TTQ, 6-234TTQ or the equal volume of vehicle only every 8-12 hours. At various time points after injection, mice were sacrificed and subjected to peritoneal lavage with 4 ml PBS containing 5 mM EDTA and 1% BSA. Total leukocytes in lavage samples were enumerated with a hemocytometer. Cells (1×10^5) were attached to glass slides with a Cytospin4 instrument (ThermoSharidon) and stained with modified Wright-Giemsa stain. Differential cell counts were performed on 5 individual fields, each containing 100 cells by light microscopy."}, "[13]": {"molecular_target": "T5, interaction of FAT with paxillin (Homo sapiens, UniProt P49023)", "T5 construct": "Recombinant 6×His-FAT, the focal adhesion targeting domain of pp125^FAK; 6xHis (N); made in house; host or cells: E. coli BL21(DE3)pLysS", "T5 sequence (P49023 whole entry, the tested form may be a part)": "as the sequence (P49023 whole entry) above", "assay": "ELISA, paxillin binding to immobilized FAT", "experimental": "as §2"}, "[14]": {"system": "CHO wildtype cells that do not express α4", "assay": "Spreading assay, CHO wildtype cells on fibronectin", "assay_type": "cell-based, Chinese Hamster", "settings": "plated on fibronectin; data not shown", "experimental": "as §3, with “containing 0.5% fetal bovine serum and 0.2% BSA were plated on coverslips coated with 3 μg/ml GST-CS-1 in 12 well plates in the” left out"}, "[15]": {"system": "Jurkat T cells", "assay": "Spreading assay, Jurkat T cells on CS-1", "assay_type": "cell-based", "settings": "180 minutes after plating on CS-1", "experimental": "as §3"}, "[16]": {"molecular_target": "T6, interaction of leupaxin with the focal adhesion targeting sequence of pp125^FAK (FAT) (Homo sapiens, UniProt O60711)", "T6 construct": "Recombinant 6×His-FAT, the focal adhesion targeting domain of pp125^FAK; 6xHis (N); made in house; host or cells: E. coli BL21(DE3)pLysS", "T6 sequence (O60711 1-386)": "T1 sequence (O60711 1-386)", "assay": "ELISA, leupaxin binding to immobilized FAT", "settings": "concentrations up to 100 μM", "experimental": "as §2"}},
  "data": [
    {"smiles": "COc1cc(C2CC(=O)Nc3c2cc(Br)c2ccccc32)cc(OC)c1OC", "note": "(centres unmarked) [6-B345TTQ]", "values": [
      {"measurement": "inhibition at 50 µM", "setting": "[1]", "result": 56.4, "unit": "%"},
      {"measurement": "inhibition at 50 µM", "setting": "[2]", "result": 52.6, "unit": "%"},
      {"measurement": "IC50", "setting": "[3]", "result": 25, "unit": "µM"},
      {"measurement": "IC50", "setting": "[4]", "result": 2400, "unit": "nM"},
      {"measurement": "cytotoxicity (cell viability)", "setting": "[5]", "result": "not cytotoxic"},
      {"measurement": "spreading of CHO-S998A cells", "setting": "[6]", "result": "increased the spreading of CHO-S998A cells to a level comparable with CHO-S998D cells"},
      {"measurement": "effect on αLβ2-mediated Jurkat T cell migration on ICAM-1", "setting": "[7]", "result": "not significantly reduced"},
      {"measurement": "IC50", "setting": "[8]", "result": 10.8, "unit": "µM"},
      {"measurement": "IC50", "setting": "[9]; 10 μg/ml leupaxin, read-out: IC50, inhibition of leupaxin binding to α4-integrin", "result": 18, "unit": "µM"},
      {"measurement": "nature of inhibition of the α4 leupaxin interaction", "setting": "[9]; increasing leupaxin, various inhibitor concentrations, model fit Graph Pad Prism 5.0", "result": "competitive inhibitor"},
      {"measurement": "α-value of mixed model of inhibition", "setting": "[9]; mixed model fit", "result": "~2.958×10^12"},
      {"measurement": "amount of α4 co-immunoprecipitated with paxillin", "setting": "[10]", "result": "decreased with increasing concentrations"},
      {"measurement": "residual α4-dependent migration of α4(Y991A) Jurkat T cells", "setting": "[11]", "result": "not further decreased"},
      {"measurement": "reduction of infiltration of peritoneal monocytes/macrophages", "setting": "[12]; 16.5 mg/kg every 8-12 hours i.p., 48 hours after thioglycollate", "result": 50, "unit": "%"},
      {"measurement": "recruitment of lymphocytes to the peritoneum", "setting": "[12]; 16.5 mg/kg every 8-12 hours, 48 hours and 72 hours after thioglycollate", "result": "reduction was not statistically significant"},
      {"measurement": "recruitment of neutrophils", "setting": "[12]; 16.5 mg/kg every 8-12 hours, vs vehicle", "result": "no difference"},
      {"measurement": "inhibition of the interaction of FAT with paxillin", "setting": "[13]", "result": "did inhibit"},
      {"measurement": "spreading of CHO wildtype cells", "setting": "[14]", "result": "not increased"},
      {"measurement": "spreading of Jurkat T cells", "setting": "[15]", "result": "dose dependent increase"},
      {"measurement": "effect on the binding of FAT to leupaxin", "setting": "[16]", "result": "no effect"}
    ]}
  ]
}
